# Experimental data as given in ChEMBL document CHEMBL2331237, “Amides of 4-hydroxy-8-methanesulfonylamino-quinoline-2-carboxylic acid as zinc-dependent inhibitors of Lp-PLA₂” (Bioorg Med Chem Lett, 2013).
# Molecular target: T1, Platelet-activating factor acetylhydrolase (Homo sapiens, UniProt Q13093)
# T1 sequence (Q13093 whole entry): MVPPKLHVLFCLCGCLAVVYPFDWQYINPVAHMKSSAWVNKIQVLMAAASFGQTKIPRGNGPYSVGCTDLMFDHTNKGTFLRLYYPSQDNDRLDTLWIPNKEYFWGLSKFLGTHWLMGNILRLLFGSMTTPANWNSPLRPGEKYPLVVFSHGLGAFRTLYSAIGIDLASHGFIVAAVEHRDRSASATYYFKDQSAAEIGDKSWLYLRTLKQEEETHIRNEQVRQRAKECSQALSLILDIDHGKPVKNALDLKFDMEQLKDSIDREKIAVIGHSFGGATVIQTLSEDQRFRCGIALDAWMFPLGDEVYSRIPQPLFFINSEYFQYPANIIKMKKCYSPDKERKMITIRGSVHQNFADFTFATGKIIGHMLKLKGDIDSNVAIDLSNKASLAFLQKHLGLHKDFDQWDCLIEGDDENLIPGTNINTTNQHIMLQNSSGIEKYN
# Assay: Inhibition of human plasma Lp-PLA2 using 2- thio-PAF as substrate incubated for 20 mins prior to substrate addition measured after 1 hr
row,IC50 [µM],SMILES
1,> 100,CS(=O)(=O)Nc1cccc2c(O)cc(C(=O)NC3CCCCCCCCCCCCC3)nc12
2,> 100,COc1cc(NS(=O)(=O)c2ccc(C)cc2)c2ncccc2c1
3,> 100,CCOC(=O)COc1cc(NS(=O)(=O)c2ccc(C)cc2)c2nc(C)ccc2c1
